The values below come from ChEMBL document CHEMBL4177732, “Anti-neuroinflammatory effects of sesquiterpenoids isolated from Nardostachys jatamansi” (Bioorg Med Chem Lett, 2018).

pIC50: −log10 of the molar value.

Data set [1] has as its system BV-2. Description: Inhibition of lipopolysaccharide-induced nitric oxide production in mouse BV2 cells assessed as reduction in nitrite level at 60 uM by Griess reaction based ELISA. Type of data set: functional.
Data set [2] deals with BV-2. Description: Inhibition of lipopolysaccharide-induced nitric oxide production in mouse BV2 cells assessed as reduction in nitrite level by Griess reaction based ELISA. The class given is functional, cell-based.
The test system of data set [3] is BV-2. Kind of data set: Cytotoxicity in mouse BV2 cells by MTT assay. The class given is cell-based.
Data set [4] relates to BV-2. Kind of data set: Inhibition of lipopolysaccharide-induced IL6 production in mouse BV2 cells pre-incubated for 1 hr before LPS stimulation for 24 hrs by ELISA. Type of data set: functional, cell-based.
Data set [5] deals with BV-2. Description: Inhibition of lipopolysaccharide-induced iNOS protein expression in mouse BV2 cells pre-incubated for 3 hrs before LPS stimulation by Western blot method. Type of data set: functional, cell-based.
The subject of data set [6] is Microglia. Description: Inhibition of lipopolysaccharide-induced nitric oxide production in Sprague-Dawley rat primary microglia cells assessed as reduction in nitrite level by Griess reaction based ELISA. Type of data set: functional, cell-based.
For data set [7], the system named is BV-2. Description: Inhibition of lipopolysaccharide-induced PGE2 production in mouse BV2 cells pre-incubated for 1 hr before LPS stimulation for 24 hrs. The class given is functional, cell-based.
Data set [8] concerns BV-2. Description: Inhibition of lipopolysaccharide-induced IL-1beta production in mouse BV2 cells pre-incubated for 1 hr before LPS stimulation for 24 hrs by ELISA. The class given is functional, cell-based.
In data set [9] the test system is Microglia. Kind of data set: Inhibition of lipopolysaccharide-induced iNOS protein expression in Sprague-Dawley rat primary microglia cells pre-incubated for 3 hrs before LPS stimulation by Western blot method. The class given is functional, cell-based.
Data set [10] has as its system Microglia. Kind of data set: Inhibition of lipopolysaccharide-induced IL-1beta production in Sprague-Dawley rat primary microglia cells pre-incubated for 1 hr before LPS stimulation for 24 hrs by ELISA. Type of data set: functional, cell-based.
Data set [11] concerns Microglia. Description: Inhibition of lipopolysaccharide-induced PGE2 production in Sprague-Dawley rat primary microglia cells pre-incubated for 1 hr before LPS stimulation for 24 hrs. The class given is functional, cell-based.
For data set [12], the system named is BV-2. Description: Inhibition of lipopolysaccharide-induced TNFalpha production in mouse BV2 cells pre-incubated for 1 hr before LPS stimulation for 24 hrs by ELISA. The class given is functional, cell-based.
The test system of data set [13] is BV-2. Description: Inhibition of lipopolysaccharide-induced COX2 protein expression in mouse BV2 cells pre-incubated for 3 hrs before LPS stimulation by Western blot method. The class given is functional, cell-based.
The test system of data set [14] is Microglia. Description: Inhibition of lipopolysaccharide-induced IL6 production in Sprague-Dawley rat primary microglia cells pre-incubated for 1 hr before LPS stimulation for 24 hrs by ELISA. Type of data set: functional, cell-based.
For data set [15], the system named is Microglia. Description: Inhibition of lipopolysaccharide-induced COX2 protein expression in Sprague-Dawley rat primary microglia cells pre-incubated for 3 hrs before LPS stimulation by Western blot method. Type of data set: functional, cell-based.
For data set [16], the system named is Microglia. Kind of data set: Inhibition of lipopolysaccharide-induced TNFalpha production in Sprague-Dawley rat primary microglia cells pre-incubated for 1 hr before LPS stimulation for 24 hrs by ELISA. The class given is functional, cell-based.

On to `CC(C)(O)C[C@@H]1CC[C@]2(C)[C@@H](O)CC[C@@](C)(O)[C@@H]12`, for which the inhibition at 60 µM in the data set with BV-2 [1] was 39%. The inhibition entry in the data set on BV-2 [2] was “Dose-dependent effect”. Besides, the Activity result in the data set on BV-2 [3] was “Non-Toxic”.

As to `C[C@@H]1C[C@@H](O)C=C2C(=O)C=C[C@@H](C(C)(C)O)[C@]21C`, in the data set with BV-2 [2], the pIC50 is 4.33 and the inhibition result was “Dose-dependent effect”. Besides, the Activity result in the data set on BV-2 [3] is “Non-Toxic”.

Regarding `C[C@@H]1CCC=C2C(=O)C=C[C@@H](O)[C@]21C`, the pIC50 was 5.45 with BV-2 [4]; 5.30 in the data set with Microglia [6]; 5.69 in the data set on BV-2 [7]; 5.69 in the data set with BV-2 [8]; 5.23 in the data set on Microglia [10]; 5.27 with Microglia [11]. In addition, the pIC50 with BV-2 [12] was 5.68; in the data set on BV-2 [2] it was 5.46; with Microglia [14], 5.44; with Microglia [16], 5.50. The inhibition result in the data set with BV-2 [5], with Microglia [9], in the data set on BV-2 [2], in the data set with BV-2 [13] and in the data set with Microglia [15] was “Dose-dependent effect” in each case. The Activity result in the data set with BV-2 [3] is on record as “Non-Toxic”.

As to `C[C@@H]1C[C@H](O)C=C2C(=O)C=C[C@@H](O)[C@]21C` [NARCHINOL B], the pIC50 in the data set with BV-2 [4] was 5.54; with Microglia [6] it was 5.38; in the data set with BV-2 [7] it was 5.62; in the data set with BV-2 [8] it was 5.76; with Microglia [10] it was 5.51; in the data set with Microglia [11] it was 5.51. The pIC50 is 5.77 in the data set with BV-2 [12], 5.61 with BV-2 [2], 5.40 in the data set with Microglia [14] and 5.01 with Microglia [16]. Moreover, the inhibition entry with BV-2 [5], in the data set with Microglia [9], in the data set on BV-2 [2], with BV-2 [13] and in the data set on Microglia [15] was “Dose-dependent effect” each time. Further, in the data set on BV-2 [3], the Activity entry is given as “Non-Toxic”.

As for `C=C1[C@@H]2O[C@@H](OC)[C@H]3[C@@H]1C[C@H](O)[C@]3(C)O2`, the inhibition at 60 µM in the data set on BV-2 [1] was 39.7%. In addition, the pIC50 with BV-2 [2] was < 4.22. Also, in the data set with BV-2 [3], the Activity result is recorded as “Non-Toxic”.

In the case of `CC(C)[C@]1(O)CC[C@@]2(C)[C@H](O)CC[C@](C)(O)[C@@H]2C1`, the inhibition at 60 µM in the data set on BV-2 [1] was found to be 28.4%. In the data set on BV-2 [2], the pIC50 is < 4.22. For the same compound, the Activity entry with BV-2 [3] is recorded as “Non-Toxic”.

As to `C=C1COC(=O)[C@H]2[C@@H]1C[C@H](O)[C@@]2(C)O` [JATAMANIN A], in the data set on BV-2 [2], the pIC50 is 4.56 and the inhibition entry was “Dose-dependent effect”. In addition, in the data set with BV-2 [3], the Activity entry is on record as “Non-Toxic”.

As to `CC(C)C1CC[C@@](C)(O)[C@@H]2CC[C@](C)(O)[C@H]2[C@@H]1O` (stereo partly drawn), in the data set on BV-2 [1], the inhibition at 60 µM was 34%. In addition, in the data set with BV-2 [2], the pIC50 is < 4.22. In the data set on BV-2 [3], the Activity result is given as “Non-Toxic”.

In the case of `C[C@@H]1C[C@H](O)C=C2C(=O)C=C[C@@H](C(C)(C)O)[C@]21C`, in the data set on BV-2 [2], the pIC50 is 4.52 and the inhibition result is “Dose-dependent effect”. The Activity result in the data set with BV-2 [3] was “Non-Toxic”.
